Laboratory results reported in patent US12378279B2, “Nicotinamide riboside hydrogen malate crystal, and its preparation method and application” (priority 2024, dated 2025).

How the values were obtained:
[1] = Stability comparison: HPLC purity of samples in covered, sealed glass dishes in a constant-temperature-humidity chamber; details: 25° C., relative humidity 40%; for Decomposition rate over 6 days: (initial sample purity−sample purity)/initial sample purity×100%; for Purity: sealed glass dish
Method: The nicotinamide riboside hydrogen malate crystal obtained herein and the commercially-available nicotinamide riboside hydrogen malate crystal samples (A and B) were each divided into seven portions and separately placed into seven glass sample dishes, with 1 g of sample in each dish. The dishes were covered and sealed. All the samples were stored in a constant-temperature-humidity chamber at 25° C. and a relative humidity of 40%. The purity of the samples was tested daily. The decomposition rate was calculated using the following formula: decomposition rate=(initial sample purity−sample purity)/initial sample purity×100%.
Product purity analysis was performed through the following steps. One packet of the sample was dissolved in a 5 mL or 10 mL volumetric flask to prepare a 5 mL or 10 mL sample solution. Then, the purity of the sample was determined using high performance liquid chromatography (HPLC).
The high performance liquid chromatography (HPLC) method parameters were as follows: isocratic elution with 5% water (0.1% formic acid) and 95% methanol (0.1% formic acid) as the mobile phase, a wavelength of 254 nm, a temperature of 23.0° C. with 54% relative humidity, samples dissolved in methanol, an ODS-2 column (4.6×250 mm, […]) with pressure maintained at 12-13 MPa, a flow rate of 1.0 mL/min, an injection volume of […] and a run time greater than or equal to 15 min.

[2] = at 112-200° C., heating rate 10° C./min, nitrogen
Method: Thermogravimetric analysis (TGA) was performed using a TGA55 instrument from TA Instruments, USA, with a temperature range of 14.8-300° C., a heating rate of 10° C./min and a nitrogen flow rate of 40 mL/min.

[3] = Stability comparison: HPLC purity of samples sealed in polyethylene bags in a constant-temperature-humidity chamber; format: physicochemical; details: 25° C., RH 40%, sealed PE bag; for Decomposition rate on day 6: (initial sample purity−sample purity)/initial sample purity×100%
Method: The nicotinamide riboside hydrogen malate crystal obtained from the above Examples and Comparative Examples products was sealed in polyethylene (PE) bags, with 1 gram per bag. […] Samples were tested at regular intervals. Sample solution was prepared through the following steps. […] Then, the sample solution was filtered through a membrane, and the sample purity was determined using high performance liquid chromatography (HPLC).

[4] = Color change and hygroscopicity of products exposed to air (Karl Fischer moisture); format: physicochemical; details: RH 40%
Method: The nicotinamide riboside hydrogen malate crystal products obtained from the above Examples and Comparative Examples were respectively exposed to air (air humidity and temperature were controlled). […] Moisture (Karl Fischer) determination method was performed using an MC-2000 automatic micro-moisture analyzer from Mince Instruments (Xiamen) Co., Ltd., and a karl fischer reagent from Nanjing Chemical Reagent Co., Ltd.

What does the source list for `NC(=O)c1ccc[n+]([C@@H]2O[C@H](CO)[C@@H](O)[C@H]2O)c1.O=C(O)CC(O)C(=O)[O-]` [Commercially-available product A, nicotinamide riboside hydrogen malate]?
Decomposition rate over 6 days [1]: 8.37%; Purity ([1]; day 0): 99.900%; Purity ([1]; day 1): 98.355%; Purity ([1]; day 2): 96.843%; Purity ([1]; day 3): 95.752%; Purity ([1]; day 4): 94.185%; Purity ([1]; day 5): 93.250%; Purity ([1]; day 6): 91.538%

For `NC(=O)c1ccc[n+]([C@@H]2O[C@H](CO)[C@@H](O)[C@H]2O)c1.O=C(O)CC(O)C(=O)[O-]` [Commercially-available product B, nicotinamide riboside hydrogen malate], which “Decomposition rate over 6 days” value [1] is on record?
Its value is 4.77%.

What about the Purity ([1]; day 0) of the same compound?
The Purity was 99.750%.

What about the Purity ([1]; day 1) of the same compound?
Its Purity is 98.843%.

And the Purity ([1]; day 2)?
The Purity was 98.310%.

What about the Purity ([1]; day 3) of the same compound?
Its Purity is 97.982%.

And the Purity ([1]; day 4)?
Its Purity is 96.530%.

What about the Purity ([1]; day 5) of the same compound?
The Purity was 95.020%.

What about the Purity ([1]; day 6) of the same compound?
The Purity was 94.989%.

With `NC(=O)c1ccc[n+]([C@@H]2O[C@H](CO)[C@@H](O)[C@H]2O)c1.O=C(O)CC(O)C(=O)[O-]` [Example 1, nicotinamide riboside hydrogen malate] as the compound, how does the “Weight loss (TGA)” value [2] read?
Its value is 1-33%.

What about the “Purity on day 6” value ([3]; listed as EXAMPLE 1) of the same compound?
The value was 99.65%.

And the Initial purity ([3]; listed as EXAMPLE 1)?
The Initial purity was 99.67%.

What about the “Decomposition rate on day 6” value ([3]; listed as EXAMPLE 1) of the same compound?
The value was 0.72%.

And the Product moisture ([4]; Day 0, 25° C., listed as EXAMPLE 1)?
The Product moisture was 0.30%.

And the Product moisture ([4]; Day 6, 25° C., listed as EXAMPLE 1)?
Its Product moisture is 2%.

What about the “Stability compared to the commercially-available products” value ([1]; 6 days) of the same compound?
The value was “better stability”.

And the “Decomposition rate over 6 days” value ([1]; listed as Product of Example 1)?
Its value is 0.759%.

What about the Purity ([1]; day 0, listed as Product of Example 1) of the same compound?
Its Purity is 99.576%.

What about the Purity ([1]; day 1, listed as Product of Example 1) of the same compound?
Its Purity is 99.553%.

And the Purity ([1]; day 2, listed as Product of Example 1)?
The Purity was 99.494%.

And the Purity ([1]; day 3, listed as Product of Example 1)?
The Purity was 99.510%.

And the Purity ([1]; day 4, listed as Product of Example 1)?
Its Purity is 99.518%.

What about the Purity ([1]; day 5, listed as Product of Example 1) of the same compound?
Its Purity is 99.499%.

And the Purity ([1]; day 6, listed as Product of Example 1)?
Its Purity is 98.820%.

What does the source list for `NC(=O)c1ccc[n+]([C@@H]2O[C@H](CO)[C@@H](O)[C@H]2O)c1.O=C(O)CC(O)C(=O)[O-]` [Example 6, nicotinamide riboside hydrogen malate]?
Purity on day 6 ([3]; listed as EXAMPLE 6): 99.11%; Initial purity ([3]; listed as EXAMPLE 6): 99.81%; Decomposition rate on day 6 ([3]; listed as EXAMPLE 6): 0.70%; Product moisture ([4]; Day 0, 25° C., listed as EXAMPLE 6): 0.29%; Product moisture ([4]; Day 6, 25° C., listed as EXAMPLE 6): 3.2%

For `NC(=O)c1ccc[n+]([C@@H]2O[C@H](CO)[C@@H](O)[C@H]2O)c1.O=C(O)CC(O)C(=O)[O-]` [Example 3, nicotinamide riboside hydrogen malate], which “Purity on day 6” value ([3]; listed as EXAMPLE 3) is on record?
Its value is 98.95%.

What about the Initial purity ([3]; listed as EXAMPLE 3) of the same compound?
Its Initial purity is 99.69%.

And the “Decomposition rate on day 6” value ([3]; listed as EXAMPLE 3)?
The value was 0.74%.

What about the Product appearance ([4]; Day 0, 25° C.) of the same compound?
Its Product appearance is “White”.

What about the Product moisture ([4]; Day 0, 25° C., listed as EXAMPLE 3) of the same compound?
Its Product moisture is 0.30%.

And the Product appearance ([4]; Day 6, 25° C.)?
The Product appearance was “White”.

And the Product moisture ([4]; Day 6, 25° C., listed as EXAMPLE 3)?
The Product moisture was 2.4%.

With `NC(=O)c1ccc[n+]([C@@H]2O[C@H](CO)[C@@H](O)[C@H]2O)c1.O=C(O)CC(O)C(=O)[O-]` [Example 2, nicotinamide riboside hydrogen malate] as the compound, how does the “Purity on day 6” value ([3]; listed as EXAMPLE 2) read?
Its value is 98.97%.

And the Initial purity ([3]; listed as EXAMPLE 2)?
Its Initial purity is 99.72%.

What about the “Decomposition rate on day 6” value ([3]; listed as EXAMPLE 2) of the same compound?
The value was 0.75%.

What about the Product moisture ([4]; Day 0, 25° C., listed as EXAMPLE 2) of the same compound?
Its Product moisture is 0.28%.

And the Product moisture ([4]; Day 6, 25° C., listed as EXAMPLE 2)?
The Product moisture was 3.1%.

With `NC(=O)c1ccc[n+]([C@@H]2O[C@H](CO)[C@@H](O)[C@H]2O)c1.O=C(O)CC(O)C(=O)[O-]` [Example 5, nicotinamide riboside hydrogen malate] as the compound, how does the “Purity on day 6” value ([3]; listed as EXAMPLE 5) read?
Its value is 99.15%.

And the Initial purity ([3]; listed as EXAMPLE 5)?
The Initial purity was 99.78%.

And the “Decomposition rate on day 6” value ([3]; listed as EXAMPLE 5)?
The value was 0.63%.

What about the Product moisture ([4]; Day 0, 25° C., listed as EXAMPLE 5) of the same compound?
The Product moisture was 0.31%.

And the Product moisture ([4]; Day 6, 25° C., listed as EXAMPLE 5)?
Its Product moisture is 2.9%.

For `NC(=O)c1ccc[n+]([C@@H]2O[C@H](CO)[C@@H](O)[C@H]2O)c1.O=C(O)CC(O)C(=O)[O-]` [Example 4, nicotinamide riboside hydrogen malate], which “Purity on day 6” value ([3]; listed as EXAMPLE 4) is on record?
The value was 98.79%.

And the Initial purity ([3]; listed as EXAMPLE 4)?
The Initial purity was 99.51%.

And the “Decomposition rate on day 6” value ([3]; listed as EXAMPLE 4)?
Its value is 0.72%.

And the Product moisture ([4]; Day 0, 25° C., listed as EXAMPLE 4)?
Its Product moisture is 0.22%.

What about the Product moisture ([4]; Day 6, 25° C., listed as EXAMPLE 4) of the same compound?
The Product moisture was 1.8%.
